Values quoted from earlier work, collected in patent US20260183243A1, “PHARMACEUTICAL COMPOSITIONS OF NOR-UDCA” (SHILPA MEDICARE LIMITED, priority 2022, published 2026).

Details: background statement, no test described

C[C@H](CC(=O)O)[C@H]1CC[C@H]2[C@@H]3[C@@H](O)C[C@@H]4C[C@H](O)CC[C@]4(C)[C@H]3CC[C@]12C [Nor-UDCA, 24-nor-ursodeoxycholic acid]
solubility in an aqueous medium: poorly soluble
